Assays:
[1] = tested on: adjuvant arthritis in Lewis rats; test: Effect on adjuvant arthritis in Lewis rats (Cellular immunostimulation); format: in vivo; conditions: 100 mg/Kg orally once a day, 21 days after sensitization; for Tumor stimulating ratio: control = 1.00; for Edema volume: hind paw
Procedure: Effect on adjuvant arthritis in Lewis rats
(Cellular immunostimulation)
10 Female Lewis rats, 9 weeks old, weighing 180-190 g were used per each group. Rats of each group were administered subcutaneously into the tail with a suspension of 0.6 mg of heated killed mycobaterium butyricum in liquid parafin. Each of the compounds I, suspended in a 5% gum arabic solution, was administered orally once a day to rats of different groups in an amounts of 100 mg/Kg after sensitization. As a comparative drug was used D-penicillamine in the form of an aqueous solution, which was administered orally to rats of different groups in a manner similar to the compound I.
In intervals were measured the edema volume of the hind paw of rats in the drug-treated groups and the control (the drug-untreated groups) for evaluating the tumor stimulating activity of the drug.

[2] = Acute toxicity; conditions: rat, in vivo; oral, male Wister rats, observed for 7 days
Procedure: 7 male, 7 weeks old, Wister rats weighing 149-160 g were used per each for test. Rats were administered orally with a suspension of the compound I of Example 1 in a 5% gum arabic solution and observed for 7 days after administration, and the LD50 value was calculated.

[3] = tested on: spleen lymphocytes; test: Stimulating effect of lymphocytes transformation (3H-thymidine uptake, mitogenation); format: cell-based, BDF1 mice; conditions: Mus musculus, Lymphocyte; for activity at 0.3 µg/mL: 0.3 μg/ml; for activity at 1 µg/mL: 1 μg/ml; for activity at 3 µg/mL: 3 μg/ml; for activity at 10 µg/mL: 10 μg/ml; for activity at 30 µg/mL: 30 μg/ml
[4] = tested on: spleen lymphocytes; test: as above; format: cell-based, BDF1 mice; conditions: Mus musculus, Lymphocyte, B medium (with lipopolysaccharide 0.2 μg/ml); 0.3 μg/ml
Procedure: Stimulating effect of lymphocytes transformation
(Immunomodulative stimulating effect)
Mediums of RPMI-1640 (produced by GIBCO Co.) containing the compound I only (A medium), and containing a mitogen (lipopolysaccharide 0.2 μg/ml) and the compound I (B medium) were prepared.
2×10^5 of spleen lymphocytes of female BDF1 mice, 8-12 weeks old, weighing 20-22 g were cultured on each of the mediums at 37° C. for 48 hours under a 5% carbon dioxide in air. 0.25 μCi of ^3 H-thymidine was added to each of the mediums, and cultivation was further carried out for 22 hours. After completion of the cultivation, the lymphocytes were collected and their radio activity was measured to calculate the ^3 H-thymidine uptake into the lymphocytes for evaluating mitogenation.
The results were expressed as percent to ^3 H-thymidine uptake into lymphocytes in the control medium (not containing the compound I) and shown in Table 4.

[5] = tested on: delayed-type footpad reaction; test: Effect on delayed-type footpad reaction (Cellular immunomodulating effect); format: in vivo, Balb/c mice; conditions: 2 hours after sensitization
Procedure: Effect on delayed-type footpad reaction
(Cellular immunomodulating effect)
8 Female Balb/c mice, 8-12 weeks oil, weighing 20-24 g were used per each group. Mice of each group were administered subcutaneously into the right footpad with 1×10^8 sheep red blood cells as antigen to be sensitized.
Each of the compounds I, suspended in a 0.5% gum arabic saline solution, was administered intraperitoneally to mice of different groups in different amounts 2 hours after the sensitization.
Four days after the sensitization, mice of each group were administered subcutaneously into the left footpad with 1×10^8 sheep red blood cells, and the increase of thickness of swelling footpad was measured for evaluating the suppression to the delayed-type footpad reaction according to the method of Lagrange et al [Journal of Experimental Medicine, vol. 139, page 528,(1974)].

[6] = tested on: adjuvant arthritis in Sprague-Dawley rats; test: Effect on adjuvant arthritis in Sprague-Dawley rats (chronic rheumatoid arthritis model); format: in vivo; conditions: 21 days after sensitization; for Edema volume: hind paw; for Paw edema suppression rate: vs control
Procedure: Effect on adjuvant arthritis is Sprague-Dawley rats
(chronic rheumatoid arthritis model)
10 Female Sprague-Dawley rats, 8 weeks old, weighting 160-190 g were used per each group. Rats of each group were administered subcutaneously into the tail with a suspension of 0.6 mg of heated killed mycobaterium butyricum in liquid parafin. Each of the compounds I, suspended in a 5% gum arabic solution, was administered orally once a day to rats of different groups in different amounts after sensitization.
At intervals were measured the edema volume of the hind paw of rats in the drug-treated groups and the control (drug-untreated groups) for evaluating tumor suppression activity of the compounds I.

[7] = B medium (with lipopolysaccharide 0.2 μg/ml)

CC(C)(S)[C@@H](N)C(=O)O [D-penicillamine, reference compound]
Tumor stimulating ratio [1]: 1.38
Edema volume [1]: 3.76 ± 0.11 mL

CC(=O)SCC(CC(=O)c1ccccc1)C(=O)O (centres unmarked) [Example 1, 2-acethylthiomethyl-3-benzoylpropionic acid]
LD50 at 168 h [2]: > 1200 mg/kg
activity at 0.3 µg/mL ([3]; A medium (compound only)): 120%
activity at 1 µg/mL ([3]; A medium (compound only)): 114%
activity at 3 µg/mL ([3]; A medium (compound only)): 129%
activity at 10 µg/mL ([3]; A medium (compound only)): 128%
activity at 30 µg/mL ([3]; A medium (compound only)): 149%
activity at 1 µg/mL [3, 7]: 146%
activity at 3 µg/mL [3, 7]: 177%
activity at 10 µg/mL [3, 7]: 217%
activity at 30 µg/mL [3, 7]: 241%
activity at 0.3 µg/mL [4]: 134%
Increase of thickness of swelling footpad ([5]; 10 mg/kg intraperitoneally): 102.5 ± 10.8 × 10^-2 mm
Suppression rate of delayed-type footpad reaction ([5]; 10 mg/kg intraperitoneally): 37.7
Increase of thickness of swelling footpad ([5]; 100 mg/kg intraperitoneally): 80.6 ± 8.0 × 10^-2 mm
Suppression rate of delayed-type footpad reaction ([5]; 100 mg/kg intraperitoneally): 51.0
Edema volume ([6]; 30 mg/kg orally once a day): 0.58 ± 0.18 mL
Paw edema suppression rate ([6]; 30 mg/kg orally once a day): 69.0%

CC(=O)SCC(CC(=O)c1ccc(F)cc1)C(=O)O (centres unmarked) [Example 2]
Tumor stimulating ratio [1]: 1.27
Edema volume [1]: 3.46 ± 0.47 mL

CC(=O)SCC(CC(=O)c1ccc(Cl)cc1)C(=O)O (centres unmarked) [Example 3]
Tumor stimulating ratio [1]: 1.18
Edema volume [1]: 3.22 ± 0.09 mL

CC(=O)SCC(CC(=O)c1ccc(Br)cc1)C(=O)O (centres unmarked) [Example 4, 2-acetylthiomethyl-3-(4-bromobenzoyl)propionic acid]
activity at 0.3 µg/mL ([3]; A medium (compound only)): 83%
activity at 3 µg/mL ([3]; A medium (compound only)): 97%
activity at 30 µg/mL ([3]; A medium (compound only)): 117%
activity at 3 µg/mL [3, 7]: 107%
activity at 30 µg/mL [3, 7]: 131%
Tumor stimulating ratio [1]: 1.20
Edema volume [1]: 3.27 ± 0.28 mL
activity at 0.3 µg/mL [4]: 115%
Increase of thickness of swelling footpad ([5]; 10 mg/kg intraperitoneally): 115.6 ± 4.8 × 10^-2 mm
Suppression rate of delayed-type footpad reaction ([5]; 10 mg/kg intraperitoneally): 8.5
Increase of thickness of swelling footpad ([5]; 100 mg/kg intraperitoneally): 89.4 ± 5.5 × 10^-2 mm
Suppression rate of delayed-type footpad reaction ([5]; 100 mg/kg intraperitoneally): 29.3
Edema volume ([6]; 30 mg/kg orally once a day): 0.64 ± 0.29 mL
Paw edema suppression rate ([6]; 30 mg/kg orally once a day): 65.8%
Edema volume ([6]; 100 mg/kg orally once a day): 0.36 ± 0.14 mL
Paw edema suppression rate ([6]; 100 mg/kg orally once a day): 80.7%
Edema volume ([6]; 300 mg/kg orally once a day): 0.12 ± 0.09 mL
Paw edema suppression rate ([6]; 300 mg/kg orally once a day): 93.6%

COc1ccc(C(=O)CC(CSC(C)=O)C(=O)O)cc1 (centres unmarked) [Example 7]
Tumor stimulating ratio [1]: 1.25
Edema volume [1]: 3.41 ± 0.19 mL

O=C(CC(CSC(=O)c1ccccc1)C(=O)O)c1ccccc1 (centres unmarked) [Example 13, 3-benzoyl-2-benzoylthiomethylpropionic acid]
Tumor stimulating ratio [1]: 1.33
Edema volume [1]: 3.63 ± 0.11 mL

CCOC(=O)C(CSC(C)=O)CC(=O)c1ccccc1 (centres unmarked) [Example 16, ethyl 2-acethylthiomethyl-3-benzoylpropionate]
Tumor stimulating ratio [1]: 1.17
Edema volume [1]: 3.18 ± 0.17 mL

From patent US4600540A, “Benzoylpropionic acid derivatives” (Taisho Pharmaceutical Co., Ltd., priority 1984, dated 1986)
